Data from patent US20110065762A1, “METHODS OF USE OF ANTIVIRAL COMPOUNDS” (priority 2009, published 2011).

molecular target: T1, M2(S31) (Influenza A virus, UniProt P0DOF5); assay: Cell-free electrophysiology of M2 proton channels on solid supported membranes (IonGate SURFE2R screen); assay type: biochemical; settings: 25 μM inhibitor, activation by pH jump 7.0 to 6.0, % inhibition=100×(1−I/Io), 25 µM
T1 construct: expressed in transfected cells; host or cells: CHO cells (membrane preparation adsorbed to SSM sensors)
T1 sequence (P0DOF5 whole entry): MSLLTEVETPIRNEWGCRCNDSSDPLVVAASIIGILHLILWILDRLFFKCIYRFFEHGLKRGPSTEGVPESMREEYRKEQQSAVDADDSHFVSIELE

**Q.** Which “IonGate_M2(S31)_Screen % Inhibition at 25 μM” value does the source give for `N#CC1C2CC3CC1CC(O)(C3)C2` (stereo not drawn) [Example 8] here?
**A.** B (11-50% (B))

**Q.** With `N#CC1C2CC3CC1CC(O)(C3)C2` (stereo not drawn) [Example 9] as the compound, how does the “IonGate_M2(S31)_Screen % Inhibition at 25 μM” value read?
**A.** C (1-10% (C))

**Q.** For `N=C(N)NC1C2CC3CC1CC(Cl)(C3)C2` (stereo not drawn) [Example 23], which “IonGate_M2(S31)_Screen % Inhibition at 25 μM” value is on record?
**A.** B (11-50% (B))

**Q.** Which “IonGate_M2(S31)_Screen % Inhibition at 25 μM” value does the source give for `N=C(N)NC1C2CC3CC1CC(Cl)(C3)C2` (stereo not drawn) [Example 24] here?
**A.** A (51-95% (A))

same assay, conditions: 25 μM inhibitor, activation by pH jump 7.0 to 6.0, % inhibition=100×(1−I/Io), read-out: IonGate_M2(S31)_Screen % Inhibition at 25 μM

**Q.** How did the inhibition at 25 µM turn out when `NCC1(O)C2CC3CC(C2)CC1C3` (stereo not drawn) [Example 1] was run?
**A.** 51 to 95%

**Q.** With `OCCNC1C2CC3CC(C2)CC1C3` (stereo not drawn) [Example 2] as the compound, how does the inhibition at 25 µM read?
**A.** 51 to 95%

**Q.** How did the inhibition at 25 µM turn out when `NC1C2CC3CC1CC(O)(C3)C2` (stereo not drawn) [Example 3] was run?
**A.** 11 to 50%

**Q.** With `OC12CC3CC(C1)C(n1ccnc1)C(C3)C2` (stereo not drawn) [Example 4, 4-imidazol-1-yladamantan-1-ol] as the compound, how does the inhibition at 25 µM read?
**A.** 11 to 50%

**Q.** How did the inhibition at 25 µM turn out when `NCC1C2CC3CC1CC(O)(C3)C2` (stereo not drawn) [Example 5] was run?
**A.** 11 to 50%

**Q.** How did the inhibition at 25 µM turn out when `NCC1(O)C2CC3CC1CC(O)(C3)C2` (stereo not drawn) [Example 6] was run?
**A.** 11 to 50%

**Q.** For `N=C(N)C1C2CC3CC(C2)CC1C3` (stereo not drawn) [Example 11], which inhibition at 25 µM is on record?
**A.** 51 to 95%

**Q.** Which inhibition at 25 µM does the source give for `N#CC1C2CC3CC1CC(Cl)(C3)C2` (stereo not drawn) [Example 12] here?
**A.** 11 to 50%

**Q.** Which inhibition at 25 µM does the source give for `N=C(N)C1C2CC3CC1CC(Cl)(C3)C2` (stereo not drawn) [Example 14] here?
**A.** 51 to 95%

**Q.** `NC1C2CC3CC1CC(Cl)(C3)C2` (stereo not drawn) [Example 15] was tested. Which inhibition at 25 µM did it give?
**A.** 51 to 95%

**Q.** For `N#CC1C2CC3CC(C2)CC1C3` (stereo not drawn) [Example 16], which inhibition at 25 µM is on record?
**A.** 51 to 95%

**Q.** For `O=[N+]([O-])C1C2CC3CC1CC(Cl)(C3)C2` (stereo not drawn) [Example 18], which inhibition at 25 µM is on record?
**A.** 1 to 10%

**Q.** With `NC1C2CC3CC(C2)CC1(O)C3` (stereo not drawn) [Example 19] as the compound, how does the inhibition at 25 µM read?
**A.** 51 to 95%

**Q.** How did the inhibition at 25 µM turn out when `O=[N+]([O-])C1C2CC3CC(C2)CC1(O)C3` (stereo not drawn) [Example 20] was run?
**A.** 11 to 50%

**Q.** `C1NC2C3CC4CC(C3)CC2(C4)O1` (stereo not drawn) [Example 21] was tested. Which inhibition at 25 µM did it give?
**A.** 51 to 95%

**Q.** How did the inhibition at 25 µM turn out when `NC1C2CC3CC1CC(S)(C3)C2` (stereo not drawn) [Example 22] was run?
**A.** 51 to 95%

**Q.** For `NC1C2CC3CC(C2)CC1C3` (stereo not drawn) [Example 26], which inhibition at 25 µM is on record?
**A.** 11 to 50%

**Q.** `C1C2CC3CC1CC(C2)C1NC31` (stereo not drawn) [Example 27] was tested. Which inhibition at 25 µM did it give?
**A.** 11 to 50%

**Q.** With `O=C1C(=O)C2CC3CC(CC1C3)C2` [Example 28] as the compound, how does the inhibition at 25 µM read?
**A.** 11 to 50%

**Q.** `O/N=C1\C(=N\O)C2CC3CC(CC1C3)C2` [Example 29] was tested. Which inhibition at 25 µM did it give?
**A.** 11 to 50%

**Q.** With `NC1C2CC3CC(C2)CC(C3)C1N` (stereo not drawn) [Example 30] as the compound, how does the inhibition at 25 µM read?
**A.** 51 to 95%

**Q.** With `O=C1CC2CC3CC1CC(O)(C2)C3` (stereo not drawn) [Example 31] as the compound, how does the inhibition at 25 µM read?
**A.** 11 to 50%

**Q.** Which inhibition at 25 µM does the source give for `O/N=C1\CC2CC3CC1CC(O)(C2)C3` (stereo not drawn) [Example 32] here?
**A.** 11 to 50%

**Q.** `NC1CC2CC3CC1CC(O)(C2)C3` (stereo not drawn) [Example 33] was tested. Which inhibition at 25 µM did it give?
**A.** 11 to 50%

**Q.** Which inhibition at 25 µM does the source give for `OC12CC3CC(C1)C1NC1C(C3)C2` (stereo not drawn) [Example 34] here?
**A.** 11 to 50%

**Q.** How did the inhibition at 25 µM turn out when `O=C1C(=O)C2CC3CC1CC(O)(C3)C2` [Example 35] was run?
**A.** 1 to 10%

**Q.** For `OC1C2CC3CC(CC(O)(C3)C2)C1O` (stereo not drawn) [Example 36], which inhibition at 25 µM is on record?
**A.** 1 to 10%

**Q.** How did the inhibition at 25 µM turn out when `O=C1CC2CC3CC1CC(Cl)(C2)C3` (stereo not drawn) [Example 37] was run?
**A.** 11 to 50%

**Q.** Which inhibition at 25 µM does the source give for `O/N=C1\CC2CC3CC1CC(Cl)(C2)C3` (stereo not drawn) [Example 38] here?
**A.** 11 to 50%

**Q.** Which inhibition at 25 µM does the source give for `NC1CC2CC3CC1CC(Cl)(C2)C3` (stereo not drawn) [Example 39] here?
**A.** 11 to 50%

**Q.** `O=C1C(=O)C2CC3CC1CC(Cl)(C3)C2` [Example 40] was tested. Which inhibition at 25 µM did it give?
**A.** 1 to 10%

**Q.** How did the inhibition at 25 µM turn out when `OC1C2CC3CC(CC(Cl)(C3)C2)C1O` (stereo not drawn) [Example 41] was run?
**A.** 1 to 10%

**Q.** Which inhibition at 25 µM does the source give for `ON=C1C(=NO)C2CC3CC1CC(Cl)(C3)C2` [Example 42] here?
**A.** 11 to 50%

**Q.** How did the inhibition at 25 µM turn out when `NC1C2CC3CC(CC(Cl)(C3)C2)C1N` (stereo not drawn) [Example 43] was run?
**A.** 1 to 10%

**Q.** With `COC12CC3CC(C1)C(C#N)C(C3)C2` (stereo not drawn) [Example 44] as the compound, how does the inhibition at 25 µM read?
**A.** 1 to 10%
